Converted amounts (≈) assume the structure as drawn.
Columns and labels:
Format in all cases: functional
P388 = assay: Cytotoxicity against mouse P388 cells
BXPC-3 = assay: Cytotoxicity against human BxPC3 cells
MCF7 = assay: Cytotoxicity against human MCF7 cells
SF-268 = assay: Cytotoxicity against human SF268 cells
NCI-H460 = assay: Cytotoxicity against human NCI-H460 cells
KM-20L2 = assay: Cytotoxicity against human KM20L2 cells
DU-145 = assay: Cytotoxicity against human DU145 cells

| Structure (SMILES) | GI50 (P388) | GI50 (BXPC-3) | GI50 (MCF7) | GI50 (SF-268) | GI50 (NCI-H460) | GI50 (KM-20L2) | GI50 (DU-145) |
| --- | --- | --- | --- | --- | --- | --- | --- |
| C=C(C)[C@@H]1CC[C@]2(C(=O)O)CC[C@]3(C)[C@H](CC[C@@H]4[C@@]5(C)CC[C@H](O)C(C)(C)[C@@H]5CC[C@]43C)[C@@H]12 [BETULINIC ACID] | > 10 µg/mL | 0.85 µg/mL (≈ 1.86 µM) | 1.1 µg/mL (≈ 2.41 µM) | 0.86 µg/mL (≈ 1.88 µM) | 4.7 µg/mL (≈ 10.3 µM) | 3.4 µg/mL (≈ 7.44 µM) | 5 µg/mL (≈ 10.9 µM) |
| CCCCCC(=O)Cc1cc(OC)cc(O)c1C(=O)Oc1cc(CC(=O)CCCCC)c(C(=O)OC)c(OC)c1 [GUSTASTATIN] | > 10 µg/mL | > 10 µg/mL | 6.4 µg/mL (≈ 11.5 µM) | 7.9 µg/mL (≈ 14.2 µM) | 5.1 µg/mL (≈ 9.16 µM) | > 10 µg/mL | 5.2 µg/mL (≈ 9.34 µM) |
| COc1cc(C)c2c(=O)c3c(O)cc(OC)cc3oc2c1 [LICHEXANTHONE] | > 10 µg/mL | 2.5 µg/mL (≈ 8.73 µM) | 4.1 µg/mL (≈ 14.3 µM) | 3 µg/mL (≈ 10.5 µM) | 7.1 µg/mL (≈ 24.8 µM) | 2 µg/mL (≈ 6.99 µM) | 3.7 µg/mL (≈ 12.9 µM) |
| C[C@H]1[C@@H](O)[C@@H](C)[C@@]2(O[C@@H]1C)[C@@H](C)[C@H]1OC(=O)[C@]2(C)C(=O)[C@@H]1C [PORTENTOL] | > 10 µg/mL | 7 µg/mL (≈ 22.6 µM) | > 10 µg/mL | 4.7 µg/mL (≈ 15.1 µM) | 4.7 µg/mL (≈ 15.1 µM) | > 10 µg/mL | 1.3 µg/mL (≈ 4.19 µM) |
| CC1(C)C=Cc2cc3ccc(=O)oc3cc2O1 [XANTHYLETIN] | > 10 µg/mL | 5.5 µg/mL (≈ 24.1 µM) | 5.9 µg/mL (≈ 25.8 µM) | 11.2 µg/mL (≈ 49.1 µM) | 9 µg/mL (≈ 39.4 µM) | 6.3 µg/mL (≈ 27.6 µM) | 2.9 µg/mL (≈ 12.7 µM) |
